Results from patent US20240209011A1, “HETEROAROMATIC PHOSPHONIUM SALTS FOR TREATING CANCER” (FLORATEK PHARMA S.A., priority 2021, published 2024).

How the values were obtained:
Format in all cases: cell-based
breast cancer cell = test: Activity against breast cancer cells; conditions: breast cancer cell growth; Tables 5A and B
Experimental: (§1) Antitumor activity of the compounds and doxorubicin as a positive control was assessed by using the CellTiter-Blue Cell Viability Assay (Promega, #G8082) or CellTiter-Glow® Luminescent Cell Viability assay (Promega #G7572) according to the manufacturer's instructions. The compounds were tested at 5 or 6 concentrations in half-log increments (highest concentration 30 μM or 100 μM) in duplicate or triplicate well conditions.
(§2) Tumor cells were grown at 37° C. in a humidified atmosphere with 5% CO2 in RPMI 1640 or DMEM medium, supplemented with 10% (v/v) fetal calf serum and 50 μg/ml gentamicin for up to 20 passages, and were passaged once or twice weekly. Cells were harvested using TrypLE or PBS buffer containing 1 mM EDTA, and the percentage of viable cells is determined using a CASY Model TI cell counter (OMNI Life Science). Cells were harvested from exponential phase cultures, counted and plated in 96 well flat-bottom microtiter plates at a cell density depending on the cell line's growth rate (4,000-20,000 cells/well depending on the cell line's growth rate, up to 60,000 for hematological cancer cell lines) in RPMI 1640 or DMEM medium supplemented with 10% (v/v) fetal calf serum and 50 μg/ml gentamicin (140 μl/well). Cultures were incubated at 37° C. and 5% CO2 in a humidified atmosphere. After 24 h, 10 μl of test compounds or control medium were added, and left on the cells for another 72 h. Compounds were serially diluted in DMSO, transferred in cell culture medium, and added to the assay plates. The DMSO concentration was kept constant at <0.3% v/v across the assay plate. Viability of cells was quantified by the CellTiter-Blue® cell viability assay (Promega G8081) or CellTiter-Glow® Luminescent Cell Viability assay (Promega #G7572). Fluorescence (FU) was measured by using the EnSpire® multimode plate reader (Perkin Elmer) (excitation X=570 nm, emission λ=600 nm). Luminescence was measured with a microplate luminometer (Promega or PerkinElmer).
(§3) Sigmoidal concentration-response curves were fitted to the data points (test-versus-control, T/C values) obtained for each tumor model using 4 parameter non-linear curve fit (Charles River DRS Datawarehouse Software) or with GraphPad prism 5.02 software. IC50 values are reported as absolute IC50 values, being the concentration of test compound at the intersection of the concentration-response curves with T/C=50% Cell lines tested are presented in Table 1.

colon cancer cell = test: Activity against colon cancer cells; conditions: colon cancer cell growth; summary of Tables 7A-7D
Experimental: as §1, §2, §3

leukaemia cell = test: Activity against leukaemia cells; conditions: leukaemia cell growth; Tables 13A and 13B
Experimental: as §1, §2, §3

22Rv1 = test: Cell viability assay (CellTiter-Blue/CellTiter-Glow); conditions: Homo sapiens; prostate carcinoma cell line 22Rv1; absolute IC50; 72 h
Experimental: as §1, §2, §3

HCT-116 = test: as above; conditions: Homo sapiens; colon carcinoma cell line HCT-116; absolute IC50; 72 h
Experimental: as §1, §2, §3

HL-60 = test: as above; conditions: Homo sapiens; leukaemia cell line HL-60; absolute IC50; 72 h
Experimental: as §1, §2, §3

LNCaP = test: as above; conditions: Homo sapiens; prostate carcinoma cell line LNCaP; absolute IC50; 72 h
Experimental: as §1, §2, §3

LoVo = test: as above; conditions: Homo sapiens; colon carcinoma cell line LoVo; absolute IC50; 72 h
Experimental: as §1, §2, §3

MCF-7 = test: as above; conditions: Homo sapiens, MCF7; breast carcinoma cell line MCF-7; absolute IC50; 72 h
Experimental: as §1, §2, §3

MDA-MB-468 = test: as above; conditions: Homo sapiens; breast carcinoma cell line MDA-MB-468; absolute IC50; 72 h
Experimental: as §1, §2, §3

PC-3 = test: as above; conditions: Homo sapiens; prostate carcinoma cell line PC-3; absolute IC50; 72 h
Experimental: as §1, §2, §3

parental H69 cells = test: as above; conditions: Homo sapiens, NCI-H69; SCLC parental H69 cells
Experimental: as §1, §2, §3

prostate cancer cell = test: Activity against prostate cancer cells; conditions: prostate cancer cell growth; text summary of Table 21
Experimental: as §1, §2, §3

SMILES: O=c1cc(-c2ccc(CCC[P+](c3ccccc3)(c3ccccc3)c3ccccc3)cc2)oc2c(O)c(O)ccc12 [SND176, (3-(4-(7,8-Dihydroxy-4-oxo-4H-chromen-2-yl)phenyl)propyl)triphenylphosphonium bromide]
- IC50 (breast cancer cell): < 20 µM
- IC50 (colon cancer cell): < 20 µM
- IC50 (leukaemia cell): < 20 µM
- IC50 (22Rv1): 8.18 µM
- IC50 (HCT-116): 8.68 µM
- IC50 (HL-60): 1.43 µM
- IC50 (LNCaP): 3.66 µM
- IC50 (LoVo): 8.6 µM
- IC50 (MCF-7): 18.3 µM
- IC50 (MDA-MB-468): 1.42 µM
- IC50 (PC-3): 7.3 µM
- IC50 (parental H69 cells): 7 µM
- IC50 (prostate cancer cell): < 10 µM
